For this assay, the system named is CCF-STTG1. The assay is described as follows: Induction of apolipoprotein E secretion in human CCF-STTG1 cells at 40 uM after 96 hrs by ELSA relative to control. Type of assay: functional.

The structures appear in SMILES notation.

For the molecule `COc1c(Br)cc(CC(=O)C(=O)O)cc1Br`, the “fold change (FC)” value was 1.

(Values after ChEMBL document CHEMBL3352253, “ApoE secretion modulating bromotyrosine derivative from the Australian marine sponge Callyspongia sp” (2014).)
